{
  "source": "paper PMC2574882",
  "about": "(The Biochemical journal, 2008)",
  "key": {"[1]": {"assay": "NMR titration with ferric ions", "type": "binding", "details": "pH 4.0, 298 K, FeCl3, precipitate in the NMR tube"}, "[2]": {"assay": "Solubility for NMR", "type": "physicochemical", "details": "80% H2O/10% ^2H2O/10% 2H6-DMSO"}, "[3]": {"test_system": "cell proliferation and migration", "details": "cited from earlier work"}, "[4]": {"biological_target": "T1, human CCK1 receptor (Homo sapiens, UniProt P32238)", "T1 sequence (P32238 1-428)": "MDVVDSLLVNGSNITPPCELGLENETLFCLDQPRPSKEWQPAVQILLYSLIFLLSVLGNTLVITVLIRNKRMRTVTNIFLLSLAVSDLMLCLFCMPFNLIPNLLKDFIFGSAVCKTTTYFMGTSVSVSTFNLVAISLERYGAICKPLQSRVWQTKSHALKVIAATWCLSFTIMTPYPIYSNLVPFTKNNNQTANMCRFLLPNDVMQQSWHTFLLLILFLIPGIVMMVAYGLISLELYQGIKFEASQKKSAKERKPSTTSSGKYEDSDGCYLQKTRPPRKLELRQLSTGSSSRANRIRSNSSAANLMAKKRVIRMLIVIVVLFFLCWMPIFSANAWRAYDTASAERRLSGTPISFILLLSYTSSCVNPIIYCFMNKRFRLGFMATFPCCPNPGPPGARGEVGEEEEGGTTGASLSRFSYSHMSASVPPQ", "assay": "Receptor binding assay, CCK1 receptor", "details": "1 μM desferrioxamine, COS-7 cells; triplicates, ANOVA"}, "[5]": {"biological_target": "T2, human CCK2 receptor (Homo sapiens, UniProt P32239)", "T2 sequence (P32239 1-447)": "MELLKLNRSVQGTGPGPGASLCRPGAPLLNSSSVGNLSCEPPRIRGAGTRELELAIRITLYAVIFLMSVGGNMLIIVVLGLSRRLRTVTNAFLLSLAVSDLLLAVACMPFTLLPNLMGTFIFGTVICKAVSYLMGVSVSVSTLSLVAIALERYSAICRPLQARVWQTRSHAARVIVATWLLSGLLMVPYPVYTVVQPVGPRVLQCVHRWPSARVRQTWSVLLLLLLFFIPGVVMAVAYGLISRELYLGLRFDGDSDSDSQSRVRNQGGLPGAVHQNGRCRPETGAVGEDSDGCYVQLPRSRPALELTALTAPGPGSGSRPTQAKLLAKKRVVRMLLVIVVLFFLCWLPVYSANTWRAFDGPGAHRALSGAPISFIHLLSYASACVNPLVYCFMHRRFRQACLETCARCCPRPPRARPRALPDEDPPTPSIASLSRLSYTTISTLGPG", "assay": "Receptor binding assay, CCK2 receptor", "details": "1 μM desferrioxamine, COS-7 cells; triplicates, ANOVA"}, "[6]": {"details": "cited from earlier work"}, "[7]": {"assay": "Absorption spectroscopy titration with ferric chloride", "details": "40 μM peptide, 298 K"}, "[8]": {"assay": "Absorption titration with ferric citrate", "type": "binding", "details": "by relative association constants"}},
  "note": "“Also recorded” adds a separate entry of the source.",
  "data": [
    {"compound": "CSCC[C@H](NC(=O)[C@H](Cc1ccc(O)cc1)NC(=O)[C@@H](N)CC(=O)O)C(=O)NCC(=O)N[C@@H](Cc1c[nH]c2ccccc12)C(=O)N[C@@H](CCSC)C(=O)N[C@@H](CC(=O)O)C(=O)N[C@@H](Cc1ccccc1)C(N)=O", "note": "[CCK8]", "values": [
      {"measurement": "solubility of Fe^3+-peptide complex (in words)", "setting": "[1]", "value": "formation of an insoluble Fe^3+-peptide complex"},
      {"measurement": "solubility (in words)", "setting": "[2]", "value": "required the presence of ^2H6-DMSO (80% H2O/10% ^2H2O/10% 2H6-DMSO) to achieve solubility at 0.23 mM"}
    ]},
    {"compound": "CC(=O)N(O)CCCCCNC(=O)CCC(=O)N(O)CCCCCNC(=O)CCC(=O)N(O)CCCCCN", "note": "[desferrioxamine]", "values": [
      {"measurement": "effect on biological activity of glycine-extended gastrin (in words)", "setting": "[3]; stimulation of cell proliferation and migration", "value": "completely blocked the biological activity of glycine-extended gastrin"},
      {"measurement": "effect on binding of labelled CCK8SO4, CCK1 receptor (in words)", "setting": "[4]", "value": "no significant effect; also recorded: inability"},
      {"measurement": "effect on binding of labelled CCK8SO4, CCK2 receptor (in words)", "setting": "[5]", "value": "no significant effect; also recorded: inability"}
    ]},
    {"compound": "N[C@@H](Cc1ccc(OP(=O)(O)O)cc1)C(=O)O", "note": "[phosphotyrosine]", "values": [
      {"measurement": "pKa of the phosphoryl group", "setting": "[6]", "value": 5.9}
    ]},
    {"compound": "ZGPWLEEEEEAYGWMDFamide [amidated gastrin]", "values": [
      {"measurement": "requirement of ferric ions for biological activity (in words)", "setting": "[3]", "value": "ferric ions were not required for the biological activity"}
    ]},
    {"compound": "CCK4", "values": [
      {"measurement": "absorbance change on addition of ferric chloride, pH 4.0 (in words)", "setting": "[7]; pH 4.0, 275 nm", "value": "no change in the absorbance; also recorded: did not cause any change in absorption"},
      {"measurement": "absorbance change / binding on addition of ferric chloride, pH 6.5 (in words)", "setting": "[7]; pH 6.5, 275 nm", "value": "No evidence of binding of ferric ions; also recorded: no increase in absorbance was seen"}
    ]},
    {"compound": "O=C(O)CC(O)(CC(=O)O)C(=O)O", "note": "[citrate]", "values": [
      {"measurement": "relative Fe^3+ binding (in words)", "setting": "[8]", "value": "binds Fe^3+ ions more tightly than any of the CCK peptides"}
    ]}
  ]
}
